Data: the supplement of paper PMC10307832

Columns and labels:
Assay in all cases: relative viability (nuclei count vs DMSO), 5 days (fraction); higher = more cells survive
[1] = compound: O=C(C[C@H]1NCCC[C@@H]1O)Cn1cnc2cc(Br)c(Cl)cc2c1=O (racemic) [Halofuginone] + CC(=O)Nc1cccc(-n2c(=O)n(C3CC3)c(=O)c3c(Nc4ccc(I)cc4F)n(C)c(=O)c(C)c32)c1 [Trametinib] (partner 0.02 µM)
Summary of the method: (§1)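 A single step with final 0.05% Triton X-100, 1% formaldehyde and 1 ug/ml Hoechst fixed the cells and stained nuclei 5 days after treatment. Lung cancer cell lines in 1536-well plates had been treated by pin tool the day after seeding with one drug alone or a fixed anchor-drug dose plus five library-drug doses (not always all listed) in √10 steps, and nuclei were counted on 4× images. Relative viability is the ratio of nuclei in treated wells to nuclei in vehicle wells, taken as the median of duplicate plates.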

Decitabine + Vorinostat = compound: Nc1ncn([C@H]2C[C@H](O)[C@@H](CO)O2)c(=O)n1 [Decitabine] + O=C(CCCCCCC(=O)Nc1ccccc1)NO [Vorinostat] (partner 1 µM)
Summary of the method: as §1

Halofuginone + Olaparib = compound: O=C(C[C@H]1NCCC[C@@H]1O)Cn1cnc2cc(Br)c(Cl)cc2c1=O (racemic) [Halofuginone] + O=C(c1cc(Cc2n[nH]c(=O)c3ccccc23)ccc1F)N1CCN(C(=O)C2CC2)CC1 [Olaparib] (partner 8 µM)
Summary of the method: as §1

Halofuginone + Dasatinib = compound: O=C(C[C@H]1NCCC[C@@H]1O)Cn1cnc2cc(Br)c(Cl)cc2c1=O (racemic) [Halofuginone] + Cc1nc(Nc2ncc(C(=O)Nc3c(C)cccc3Cl)s2)cc(N2CCN(CCO)CC2)n1 [Dasatinib] (partner 0.075 µM)
Summary of the method: as §1

Cell Line | relative viability ([1]; first compound 0.001 µM) | relative viability ([1]; first compound 0.003162 µM) | relative viability ([1]; first compound 0.01 µM) | relative viability ([1]; first compound 0.03162 µM) | relative viability ([1]; first compound 0.1 µM) | relative viability (Decitabine + Vorinostat; first compound 0.04 µM) | relative viability (Decitabine + Vorinostat; first compound 0.1265 µM) | relative viability (Decitabine + Vorinostat; first compound 1.265 µM) | relative viability (Decitabine + Vorinostat; first compound 4 µM) | relative viability (Halofuginone + Olaparib; first compound 0.001 µM) | relative viability (Halofuginone + Olaparib; first compound 0.003162 µM) | relative viability (Halofuginone + Olaparib; first compound 0.01 µM) | relative viability (Halofuginone + Olaparib; first compound 0.03162 µM) | relative viability (Halofuginone + Olaparib; first compound 0.1 µM) | relative viability (Halofuginone + Dasatinib; first compound 0.001 µM) | relative viability (Halofuginone + Dasatinib; first compound 0.003162 µM) | relative viability (Halofuginone + Dasatinib; first compound 0.01 µM) | relative viability (Halofuginone + Dasatinib; first compound 0.03162 µM) | relative viability (Halofuginone + Dasatinib; first compound 0.1 µM) | relative viability (Decitabine + Vorinostat; first compound 0.4 µM)
EPLC-272H | 0.312 | 0.273 | 0.285 | 0.326 | 0.247 | 0.369 | 0.281 | 0.221 | 0.215 | 1.09 | 0.775 | 0.583 | 0.764 | 0.445 | 0.366 | 0.427 | 0.43 | 0.37 | 0.274 | –
NCI-H1975 | 0.448 | 0.317 | 0.361 | 0.298 | 0.157 | 0.508 | 0.412 | 0.281 | 0.291 | 0.875 | 0.868 | 0.721 | 0.429 | 0.14 | 0.375 | 0.324 | 0.348 | 0.231 | 0.117 | 0.375
NCI-H3122 | 0.192 | 0.241 | 0.258 | 0.219 | 0.25 | 0.92 | 0.866 | 0.53 | 0.487 | 0.654 | 0.618 | 0.642 | 0.692 | 0.686 | 0.852 | 0.658 | 0.735 | 0.806 | 0.66 | 0.574
COR-L 105 | 0.446 | 0.492 | 0.481 | 0.421 | 0.383 | 0.768 | 0.721 | 0.585 | 0.439 | 0.695 | 0.607 | 0.698 | 0.664 | 0.625 | 0.387 | 0.353 | 0.316 | 0.257 | 0.234 | 0.61
BEN | 1.14 | 1.11 | 1.07 | 1.02 | 0.714 | 0.664 | 0.623 | 0.488 | 0.435 | 1.06 | 1 | 1.12 | 1.02 | 0.626 | 0.345 | 0.318 | 0.331 | 0.36 | 0.229 | 0.451
NCI-H1915 | 0.319 | 0.291 | 0.28 | 0.297 | 0.262 | 0.263 | 0.235 | 0.158 | 0.155 | 0.225 | 0.247 | 0.241 | 0.26 | 0.237 | 0.308 | 0.332 | 0.322 | 0.294 | 0.23 | 0.206
NCI-H650 | 0.898 | 1.19 | 1.09 | 1.08 | 0.77 | 0.338 | 0.301 | 0.219 | 0.16 | 0.395 | 0.389 | 0.408 | 0.36 | 0.286 | 0.528 | 0.478 | 0.47 | 0.452 | 0.367 | 0.204
NCI-H1650 | 0.656 | 0.696 | 0.55 | 0.57 | 0.216 | 0.358 | 0.367 | 0.195 | 0.215 | 0.95 | 0.806 | 0.836 | 0.677 | 0.538 | 0.339 | 0.329 | 0.293 | 0.2 | 0.166 | 0.318
